Legend:
X4-tropic viruses = test: GGR cell G.Luc signal with X4-tropic viruses; format: cell-based, HIV; settings: GGR cells, low endogenous CXCR4
[1] = test system: CCR5-using HIV-1 isolate (live, replication-competent JR-CSF)

Maraviroc
G.Luc signal with X4-tropic viruses under maraviroc (X4-tropic viruses): resistant to maraviroc inhibition
Gaussia luciferase signal of CCR5-mediated infection in the presence of maraviroc [1]: reproducibly reduced

Source: patent US9719127B2, “Dual inducible vectors and cell lines” (priority 2012, dated 2017)
